For series [1], the system named is AR. In words: RNA interference ablation of AR in SAEC (AR protein by Western blot). Type of series: cell-based, human. To be noted: transient transfection of SAEC, 100 nM, 48 h. As for the experimental part: The ablation of AR mRNA was essentially carried out as described in the art. Briefly, 2×10^5 SAECs were plated in a 6-well plate and grown until ˜80% confluency. The cells were incubated with serum-free medium containing the AR-siRNA ([…] (SEQ ID NO:1)) or scrambled siRNA (AAAATCTCCCTAAATCA TACA (SEQ ID NO:2); control) to a final concentration of 100 nM and the RNAiFect™ transfection reagent (Qiagen). The cells were cultured for 48 h at 37° C., and AR expression was determined by measuring AR protein by Western blot analysis using anti-AR antibodies.
The ablation of AR mRNA was essentially carried out as described in the art. Briefly, 2×10^5 SAECs were plated in a 6-well plate and grown till >80% confluency. The cells were incubated with serum-free medium containing the AR-siRNA ([…]) (SEQ ID NO:1) or scrambled siRNA (AAAATCTCCCTAAATCA TACA (SEQ ID NO:2); control) to a final concentration of 100 nM and the RNAiFect™ transfection reagent (Qiagen). The cells were cultured for 48 h at 37° C., and AR expression was determined by measuring AR protein by Western blot analysis using anti-AR antibodies.
For orientation: In western blotting, separated proteins are transferred to a membrane and probed.

The subject of series [2] is IL-6, IL-8 and PGE2. In words: TNF-α- and LPS-induced IL-6, IL-8 and PGE2 secretion by SAEC (ELISA). Format: cell-based, human. The settings on record: siRNA 100 nM 48 h, then TNF-α or LPS 24 h. In general terms: In an ELISA, binding on a coated surface is turned into a signal by an enzyme label.
The test system of series [3] is IL-6, IL-8 and PGE2. In words: RW-induced IL-6, IL-8 and PGE2 secretion by SAEC (ELISA). To be noted: siRNA 100 nM, 48 h, then RW 50 μg/ml 24 h. Type of series: cell-based, human. As for the experimental part: The SAEC were plated in 6-well plates at a density of 2×10^5 cells/well in triplicate for each group. After 24 hours, the medium was replaced with serum-free SABM with or without zopolrestat (20 μM). The growth-arrested and AR ablated cells were stimulated with RW (50 μg/mL) for another 24 hours. The medium was collected from each well, centrifuged and supernatant was analyzed for PGE2 (Cayman Chemical Co., Ann Arbor, Mich.); IL-6 (Diaclone, Stamford, Conn.) and IL-8 (R&D systems Inc, Minneapolis, Minn.) by using an ELISA kits according to the manufacturer's instructions.

The target in series [4] is AR (Homo sapiens, UniProt P15121). To be noted: substrate of AR, in the presence of NADPH; cited from earlier work.

Turning to “AATCGGTGTCTCCAACTTCAA (SEQ ID NO:1) (listed as DNA, chemistry not given here) [AR siRNA, siRNA used to ablate AR mRNA in SAEC, 100 nM]”, the AR protein abolished in series [1] is reported as more than 95%. Moreover, in series [2], the “TNF-α and LPS-induced IL-6, IL-8 and PGE2 production after ablation of AR” value is listed as “significantly prevented”. For the same compound, the “RW-induced synthesis of IL-6, IL-8 and PGE2 after siRNA ablation of AR” value in series [3] is on record as “significantly prevented”.

As usually defined, the Km is the concentration of substrate that gives half-maximal velocity. As to `CCCCCC(O)/C=C/C=O` (stereo not shown) [HNE, 4-hydroxynonenal], in series [4], the Km is 10 to 30 µM.

These data come from US9198915B2, “Methods involving aldose reductase inhibitors” (The Board of Regents of The University of Texas System, priority 2007, dated 2015).
